In patent US6218367A, “Paclitaxel-carbohydrate conjugates: design, synthesis and biological evaluations” (Organomed Corporation, priority 1999, dated 2001):
Where two headings read alike, the source gives them in different places.

Key:
SK-OV-3 = test: NCI in vitro human tumor cell line screen, ovarian cancer; type: cell-based; settings: SK-OV-3, ovarian cancer, 48 hours
[1] = system: ovarian cancer cell lines; test: NCI screen, ovarian cancer cell lines as a group; type: cell-based, human; settings: for GI50: Homo sapiens, read-out: GI50 values, range
MCF-7 = test: NCI in vitro human tumor cell line screen, breast cancer; type: cell-based
NCI-H522 = test: NCI in vitro human tumor cell line screen, non small lung cancer; type: cell-based; settings: 48 hours
DU-145 = test: NCI in vitro human tumor cell line screen, prostate cancer; type: cell-based
SNB-75 = test: NCI in vitro human tumor cell line screen, CNS cancer; type: cell-based; settings: for GI50: Homo sapiens
Description: (§1) Compounds were tested as described (Monks, A. et al., (1991). J. Nat. Cancer Int., 83, 757-766; Boyd, M. R., and Paull, K. D., (1995) "Some practical considerations and applications of the National Cancer Institute In Vitro Anticancer Drug Discovery Program", Drug Development Res., 34, 91-109 in the NCI in vitro human tumor cell line screen). The compounds were examined in 60 different cell lines. The following definitions are based on the National Cancer Institute in vitro screen protocol (Boyd, M. R., and Paull, K. D., (1995) "Some practical considerations and applications of the National Cancer Institute In Vitro Anticancer Drug Discovery Screen", ibid., 34, 91-109).
(§2) The "50% growth inhibition" parameter (GI50) is the concentration of test drug where: [formula]
(§3) T is the optical density of the test well after 48 hours drug exposure, T0 is the optical density at time zero, and C is the control optical density, PG is the "percent growth". It is a T/C like parameter that can have values from +100 to -100.
(§4) Total Growth Inhibition (TGI) signifies the cytostatic level effect: [formula]
(§5) The GI50, TGI and LC50 values were calculated by interpolation using the tested concentrations that give PG values above and below the response reference values (e.g. 50 for GI50). Dose-response curves are compared for compound 1 and paclitaxel for breast cancer, ovarian cancer, CNS cancer and non-small lung cancer in FIGS. 1-4 respectively.

[2] = Water solubility as equilibrium concentration by HPLC
Description: The water solubility of compound 1 was determined as an equilibrium concentration at room temperature using HPLC measurements.

SW-620 = test: NCI in vitro human tumor cell line screen, colon cancer; type: cell-based; settings: SW-620, colon cancer, 48 hours
OVCAR-8 = test: NCI in vitro human tumor cell line screen, ovarian cancer; type: cell-based; settings: OVCAR-8, ovarian cancer, 48 hours
HCT-15 = test: NCI in vitro human tumor cell line screen, colon cancer; type: cell-based
[3] = system: non-small cell lung cancer; test: NCI screen, non-small cell lung cancer dose response curves; type: cell-based, human; settings: FIG. 4, vs paclitaxel
CCRF-CEM = test: NCI in vitro human tumor cell line screen, leukemia; type: cell-based
HCC-2998 = test: NCI in vitro human tumor cell line screen, colon cancer; type: cell-based; settings: HCC-2998, colon cancer, 48 hours
HL-60TB = test: NCI in vitro human tumor cell line screen, leukemia; type: cell-based
RXF-393 = test: NCI in vitro human tumor cell line screen, renal cancer; type: cell-based
OVCAR-5 = test: NCI in vitro human tumor cell line screen, ovarian cancer; type: cell-based
HT-29 = test: NCI in vitro human tumor cell line screen, colon cancer; type: cell-based
Description: as §1, §2, §3, §4, §5

NCI-H23 = test: NCI in vitro human tumor cell line screen, non small lung cancer; type: cell-based
RPMI-8226 = test: NCI in vitro human tumor cell line screen, leukemia; type: cell-based; settings: RPMI-8226, leukemia, 48 hours
A549/ATCC = test: NCI in vitro human tumor cell line screen, non small lung cancer; type: cell-based; settings: 48 hours
SNB-19 = test: NCI in vitro human tumor cell line screen, CNS cancer; type: cell-based; settings: SNB-19, CNS cancer, 48 hours
ADR-RES = test: NCI in vitro human tumor cell line screen, breast cancer; type: cell-based; settings: vs paclitaxel
SN12C = test: NCI in vitro human tumor cell line screen, renal cancer; type: cell-based
U251 = test: NCI in vitro human tumor cell line screen, CNS cancer; type: cell-based; settings: U-251, 48 hours
EKVX = test: NCI in vitro human tumor cell line screen, non small lung cancer; type: cell-based; settings: 48 hours
CNS cancer = test: NCI screen, CNS cancer dose response curves; type: cell-based, human; settings: FIG. 3, vs paclitaxel
SF-539 = test: NCI in vitro human tumor cell line screen, CNS cancer; type: cell-based; settings: SF-539, CNS cancer, 48 hours
SF-268 = test: as above; type: cell-based; settings: for GI50: Homo sapiens
HCT-116 = test: NCI in vitro human tumor cell line screen, colon cancer; type: cell-based; settings: HCT-116, colon cancer, 48 hours
NCI-H322M = test: NCI in vitro human tumor cell line screen, non small lung cancer; type: cell-based; settings: 48 hours
786-0 = test: NCI in vitro human tumor cell line screen, renal cancer; type: cell-based
[4] = system: various cancer cell lines; test: NCI in vitro human tumor cell line screen, various cancer cell lines; type: cell-based; settings: for IC (TGI): Homo sapiens, 48 h, read-out: TGI values (concentrations), order of magnitude
Description: as §1, §2, §3, §4
The LC50 is the lethal dose concentration, "net cell killing" or cytotoxicity parameter: [formula]
as §5

PC-3 = test: NCI in vitro human tumor cell line screen, prostate cancer; type: cell-based
breast cancer cell lines = test: NCI screen, breast cancer cell lines as a group; type: cell-based, human; settings: for GI50: Homo sapiens, 48 h, read-out: GI50 values, range
HOP-62 = test: NCI in vitro human tumor cell line screen, non small lung cancer; type: cell-based; settings: HOP-62, non small lung cancer, 48 hours
IGROVI = test: NCI in vitro human tumor cell line screen, ovarian cancer; type: cell-based; settings: vs paclitaxel
OVCAR-3 = test: as above; type: cell-based
T-47D = test: NCI in vitro human tumor cell line screen, breast cancer; type: cell-based
UACC-62 = test: NCI in vitro human tumor cell line screen, melanoma; type: cell-based; settings: UACC-62, melanoma, vs paclitaxel
MDA-MB-435 = test: NCI in vitro human tumor cell line screen, breast cancer; type: cell-based; settings: 48 h, MDA-MB-435, breast cancer, read-out: TGI (total growth inhibition)
Description: as §1, §2, §3, §4, §5

MDA-N = test: as above; type: cell-based
Description: as §1, §2, §3, §4, §5

HS578T = test: as above; type: cell-based; settings: Hs-578T
Description: as §1, §2, §3, §4, §5

SF-295 = test: NCI in vitro human tumor cell line screen, CNS cancer; type: cell-based
COLO205 = test: NCI in vitro human tumor cell line screen, colon cancer; type: cell-based
MOLT-2 = test: NCI in vitro human tumor cell line screen, leukemia; type: cell-based; settings: MOLT-2, leukemia, 48 hours
NCI-H226 = test: NCI in vitro human tumor cell line screen, non small lung cancer; type: cell-based; settings: 48 hours
[5] = 48 h, read-out: TGI (total growth inhibition)

With CC(=O)OC1C(=O)C2(C)C(O)CC3OCC3(OC(C)=O)C2C(OC(=O)c2ccccc2)C2(O)CC(OC(=O)C(OC(=O)CCC(=O)NCCCC(=O)OC3C(O)C(O)OC(CO)C3O)C(NC(=O)c3ccccc3)c3ccccc3)C(C)=C1C2(C)C (stereo not drawn) [chackol, (3-glucose) GABA paclitaxel succinate] the GI50 (SK-OV-3) was 502 pM, the GI50 ([1]; ovarian lines OVCAR-3, OVCAR-5 and IGROVI) was about 100 pM and the “dose response curve compared with paclitaxel” value ([1]; ovarian cancer, FIG. 2, vs paclitaxel) was “extend one log unit lower than those for paclitaxel”. For the same molecule, the GI50 (MCF-7; Homo sapiens, MCF7, MCF-7, breast cancer, 48 hours) was 256 pM, the “times more active than paclitaxel (GI50)” value (MCF-7; MCF-7, vs paclitaxel) was 15 times and the GI50 (NCI-H522) was 184 pM. The “times more active than paclitaxel (GI50)” value (DU-145; DU-145, vs paclitaxel) was 12 times, the GI50 (DU-145; Homo sapiens, DU-145, prostate cancer, 48 hours) was 401 pM and the GI50 (SNB-75; SNB-75, CNS cancer, 48 hours, read-out: GI50) was 210 pM. For the same molecule, the “times more active than paclitaxel (TGI)” value (SNB-75; SNB-75, CNS cancer, vs paclitaxel) was 67 times, the “times more active than paclitaxel (GI50)” value (SNB-75; SNB-75, vs paclitaxel) was 65 times and the solubility [2] was 240 µg/mL. The GI50 (SW-620) was 348 pM, the GI50 (OVCAR-8) was 437 pM and the “times more active than paclitaxel (GI50)” value (HCT-15; HCT-15, vs paclitaxel) was 7 times. The GI50 (HCT-15; Homo sapiens, HCT-15, colon cancer, 48 hours) was 27900 pM, the “dose response curve compared with paclitaxel” value [3] was “extend one log unit lower than those for paclitaxel” and the GI50 (CCRF-CEM; Homo sapiens, leukemia, 48 hours) was 313 pM. For the same molecule, the “times more active than paclitaxel (GI50)” value (CCRF-CEM; vs paclitaxel) was 8 times, the GI50 (HCC-2998) was 152 pM and the “times more active than paclitaxel (GI50)” value (HL-60TB; HL-60 (TB), vs paclitaxel) was 8 times. The GI50 (HL-60TB; Homo sapiens, HL-60TB, leukemia, 48 hours) was 249 pM, the GI50 (RXF-393; Homo sapiens, RXF-393, renal cancer, 48 hours) was 496 pM and the “times more active than paclitaxel (GI50)” value (RXF-393; RXF-393, vs paclitaxel) was 23 times. For the same molecule, the GI50 (OVCAR-5; Homo sapiens, OVCAR-5, ovarian cancer, 48 hours) was 156 pM, the “times more active than paclitaxel (GI50)” value (OVCAR-5; OVCAR-5, vs paclitaxel) was 32 times and the “times more active than paclitaxel (TGI)” value (HT-29; HT-29, colon cancer, vs paclitaxel) was 303 times. The “times more active than paclitaxel (GI50)” value (HT-29; HT-29, vs paclitaxel) was 40 times, the GI50 (HT-29; Homo sapiens, HT-29, colon cancer, 48 hours) was 127 pM and the GI50 (NCI-H23; Homo sapiens, NCI-H23, non small lung cancer, 48 hours) was 428 pM. For the same molecule, the “times more active than paclitaxel (GI50)” value (NCI-H23; NCI-H23, vs paclitaxel) was 107 times, the GI50 (RPMI-8226) was 266 pM and the GI50 (A549/ATCC) was 575 pM. For the same molecule, the GI50 (SNB-19) was 354 pM, the “times more active than paclitaxel (GI50)” value (ADR-RES) was 23 times and the GI50 (SN12C; Homo sapiens, renal cancer, 48 hours) was 481 pM. For the same molecule, the “times more active than paclitaxel (GI50)” value (SN12C; vs paclitaxel) was 16 times, the GI50 (U251) was 363 pM and the GI50 (EKVX) was 1980 pM. The “dose response curve compared with paclitaxel” value (CNS cancer) was “extend one log unit lower than those for paclitaxel”, the GI50 (SF-539) was 220 pM and the GI50 (SF-268; SF-268, CNS cancer, 48 hours, read-out: GI50) was 275 pM. For the same molecule, the “times more active than paclitaxel (GI50)” value (SF-268; SF-268, vs paclitaxel) was 28 times, the GI50 (HCT-116) was 228 pM and the GI50 (NCI-H322M) was 593 pM. For the same molecule, the “times more active than paclitaxel (GI50)” value (786-0; 786-0, vs paclitaxel) was 11 times, the GI50 (786-0; Homo sapiens, 786-0, renal cancer, 48 hours) was 1330 pM and the IC (TGI) ([4]; on the order of, various cancer cell lines) was about 100 pM. The “dose response curves compared with paclitaxel” value ([4]; breast, ovarian, CNS, non-small lung cancer, FIGS. 1-4) was “extend one log unit lower”, the “growth inhibition (GI50) compared with paclitaxel” value ([4]; in general, vs paclitaxel) was “active at a much lower concentration as compared to paclitaxel” and the “total growth inhibition compared with paclitaxel” value ([4]; various cancer cell lines, vs paclitaxel) was “more active than paclitaxel”. For the same molecule, the GI50 (PC-3; Homo sapiens, PC-3, prostate cancer, 48 hours) was 276 pM, the “times more active than paclitaxel (GI50)” value (PC-3; PC-3, vs paclitaxel) was 10 times and the GI50 (breast cancer cell lines; breast lines MCF-7, ADR-RES and T-47D) was 100 to 10000 pM. The “dose response curve compared with paclitaxel” value (breast cancer cell lines; breast cancer, FIG. 1, vs paclitaxel) was “extend one log unit lower than those for paclitaxel”, the GI50 (HOP-62) was 1130 pM and the “times more active than paclitaxel (GI50)” value (IGROVI) was 45 times. For the same molecule, the GI50 (OVCAR-3; Homo sapiens, OVCAR-3, ovarian cancer, 48 hours) was 266 pM, the “times more active than paclitaxel (GI50)” value (OVCAR-3; OVCAR-3, vs paclitaxel) was 18 times and the GI50 (T-47D; Homo sapiens, T47D, breast cancer, 48 hours) was 804 pM. The “times more active than paclitaxel (GI50)” value (T-47D; vs paclitaxel) was 14 times, the “times more active than paclitaxel (GI50)” value (UACC-62) was 1490 times and the IC (TGI) (MDA-MB-435) was 215 pM. For the same molecule, the IC (TGI) (MDA-N; [5]) was 294 pM, the GI50 (MDA-N; 48 hours) was 105 pM and the IC (TGI) (HS578T; [5]) was 592 pM. For the same molecule, the GI50 (HS578T; 48 hours) was 180 pM, the GI50 (SF-295; Homo sapiens, SF-295, CNS cancer, 48 hours) was 1440 pM and the “times more active than paclitaxel (GI50)” value (SF-295; SF-295, vs paclitaxel) was 25 times. For the same molecule, the “times more active than paclitaxel (GI50)” value (COLO205; COLO25 (so in the source), vs paclitaxel) was 19 times, the GI50 (COLO205; Homo sapiens, COLO 205, COLO205, colon cancer, 48 hours) was 247 pM and the GI50 (MOLT-2) was 487 pM. The GI50 (NCI-H226) was 419 pM.
CC(=O)O[C@H]1C(=O)[C@@]2(C)[C@H]([C@H](OC(=O)c3ccccc3)[C@]3(O)C[C@H](OC(=O)[C@H](O)[C@@H](NC(=O)c4ccccc4)c4ccccc4)C(C)=C1C3(C)C)[C@]1(OC(C)=O)CO[C@@H]1C[C@@H]2O [paclitaxel] showed a GI50 ([1]; 48 h) of 1000 to 10000 pM, a GI50 (SNB-75; SNB-75, 48 h) of 13600 pM and a GI50 (SF-268; SF-268, 48 h) of 7610 pM. It also gave an IC (TGI) [4] of 10000 to 100000 pM and a GI50 (breast cancer cell lines) of 10000 to 100000 pM.
